Patent US20250154146A1, “PROTEIN DEGRADERS DEVELOPED ON BASIS OF BCL-2 FAMILY PROTEIN LIGAND COMPOUNDS AND USE THEREOF” (ShanghaiTech University, priority 2022, published 2025)

Assays:
Assay type in all cases: cell-based
[1] = tested on: MV4;11 cells; assay: Thiazolyl blue cell proliferation assay in MV4;11 cells; conditions: Homo sapiens, MV4;11 myeloid monocytic leukemia cells, 48 hours, read-out: IC50 (nM) for inhibiting the proliferation of MV4;11 cells
From the text: (§1) The cell lines RS4;11 (human acute lymphocytic leukemia cells), Molt-4 cells (human acute lymphocytic leukemia cells), MV4;11 (human myeloid monocytic leukemia cells), and Light II cells were commercially available or purchased from ATCC (American Type Culture Collection) and routinely cultured according to instructions.
2) Study on the proliferation inhibition effects induced by the compounds of the present disclosure designed based on ABT199/263 against BCL-XL-dependent MV4;11 cells:
(§2) The specific steps were as follows: MV4;11 cells were seeded at a density of 2×10^4 cells/well in 90 μL of serum-containing IMDM culture medium. DT2216 and the compounds of the present disclosure were added to the cell suspension at corresponding concentration gradients. DT2216 and DMSO were used as positive and vehicle control, respectively. The positive control and negative control were treated with the same treatment method as the compounds of the present disclosure. After treating the cells with the compounds of the present disclosure for 48 hours, thiazole blue solution (5 mg/mL) was added at 10 µL/well to the cell suspension, followed by incubation for 3 hours at 37° C. in an incubator with 5% CO2. Then, triple solution (0.1 g/mL SDS, 5% isopropyl alcohol, 10 mM hydrochloric acid) was added, followed by incubation for 4-6 hours at 37° C. in an incubator with 5% CO2. After confirming that all the crystal violets were dissolved under inverted biological microscopy, the absorbance was measured at 490 nm using an Epoch microplate reader (Biotek Corporation). The growth inhibition of the compounds of the present disclosure on the cells was plotted by GraphPad Prism 8 software, and the IC50 values of the compounds of the present disclosure were calculated therefrom. The experiment had 3 replicates per group and was repeated at least three times.

[2] = tested on: RS4;11 cells; assay: Thiazolyl blue cell proliferation assay in RS4;11 cells; conditions: Homo sapiens, RS4;11 acute lymphoblastic leukemia cells, 48 hours, read-out: IC50 (nM) for inhibiting the proliferation of RS4;11 cells
From the text: as §1
1) Study on the proliferation inhibition effects induced by the compounds of the present disclosure designed based on ABT199/263 against BCL-XL-dependent RS4;11 cells:
as §2, with “RS4;11” for “MV4;11”, “3×10^4” for “2×10^4”, “RPMI-1640” for “IMDM”, “μL/well” for “µL/well”
We conducted dose-dependent experiments on the designed and synthesized compounds of the present disclosure in RS4;11 cells, which are highly sensitive to BCL-XL inhibitors. The cells were treated with 7 different concentrations (starting at the highest concentration of 1000 nM or 100 nM; 10-fold serial dilutions) of the compounds for 48 hours, and then tested using the thiazolyl blue cell proliferation assay.

[3] = tested on: Molt-4 cells; assay: Thiazolyl blue cell proliferation assay in Molt-4 cells; conditions: Homo sapiens, Molt-4 acute lymphocytic leukemia cells, 72 hours, read-out: IC50 (nM) for inhibiting the proliferation of Molt-4 cells
From the text: as §1
3) Study on the proliferation inhibition effects induced by the compounds of the present disclosure designed based on ABT199/263 against BCL-XL-dependent Molt-4 cells:
as §2, with “follows: Molt-4” for “follows: MV4;11”, “in 180” for “in 90”, “serum-containing RPMI 1640” for “serum-containing IMDM”, “for 72” for “for 48”, “at 20 μL/well” for “at 10 µL/well”

IC50 [1] | IC50 [2] | IC50 [3] | Structure (SMILES)
< 20 nM | < 20 nM | < 10 nM | CC1(C)CCC(CN2CCN(c3ccc(C(=O)NS(=O)(=O)c4ccc(NC[C@H]5CC[C@H](N6CCN(Cc7cc(Br)c8c(c7)C(=O)N(C7CCC(=O)NC7=O)C8)CC6)CC5)c(S(=O)(=O)C(F)(F)F)c4)c(Oc4cnc5[nH]ccc5c4)c3)CC2)=C(c2ccc(Cl)cc2)C1 (stereo partly drawn) [BCL-03182, 2-((1H-pyrrolo[2,3-b]pyridin-5-yl)oxy)-N-((4-((((trans)-4-(4-((7-bromo-2-(2,6-dioxopiperidin-3-yl)-3-oxoisoindolin-5-yl)methyl)piperazin-1-yl)cyclohexyl)methyl)amino)-3-((trifluoromethyl)sulfonyl)phenyl)sulfonyl)-4-(4-((4′-chloro-5,5-dimethyl-3,4,5,6-tetrahydro-[1,1′-biphenyl]-2-yl)methyl)piperazin-1-yl)benzamide]
< 20 nM | < 20 nM | < 10 nM | CC1(C)CCC(CN2CCN(c3ccc(C(=O)NS(=O)(=O)c4ccc(NC[C@H]5CC[C@H](N6CCN(Cc7ccc8c(c7)C(=O)N(C7CCC(=O)NC7=O)C8=O)CC6)CC5)c(S(=O)(=O)C(F)(F)F)c4)c(Oc4cnc5[nH]ccc5c4)c3)CC2)=C(c2ccc(Cl)cc2)C1 (stereo partly drawn) [BCL-03185, 2-((1H-pyrrolo[2,3-b]pyridin-5-yl)oxy)-4-(4-((4′-chloro-5,5-dimethyl-3,4,5,6-tetrahydro-[1,1′-biphenyl]-2-yl)methyl)piperazin-1-yl)-N-((4-((((trans)-4-(4-((2-(2,6-dioxopiperidin-3-yl)-1,3-dioxoisoindolin-5-yl)methyl)piperazin-1-yl)cyclohexyl)methyl)amino)-3-((trifluoromethyl)sulfonyl)phenyl)sulfonyl)benzamide]
< 20 nM | < 20 nM | < 10 nM | C[C@H]1CN([C@H]2CC[C@@H](CNc3ccc(S(=O)(=O)NC(=O)c4ccc(N5CCN(CC6=C(c7ccc(Cl)cc7)CC(C)(C)CC6)CC5)cc4Oc4cnc5[nH]ccc5c4)cc3[N+](=O)[O-])CC2)CCN1Cc1ccc2c(c1)C(=O)N(C1CCC(=O)NC1=O)C2=O (stereo partly drawn) [BCL-03190, 2-((1H-pyrrolo[2,3-b]pyridin-5-yl)oxy)-4-(4-((4′-chloro-5,5-dimethyl-3,4,5,6-tetrahydro-[1,1′-biphenyl]-2-yl)methyl)piperazin-1-yl)-N-((4-((((cis)-4-((3S)-4-((2-(2,6-dioxopiperidin-3-yl)-1,3-dioxoisoindolin-5-yl)methyl)-3-methylpiperazin-1-yl)cyclohexyl)methyl)amino)-3-nitrophenyl)sulfonyl)benzamide]
165 ± 70.7 nM | 81 ± 24.9 nM | 17.3 ± 9.57 nM | Cc1ncsc1-c1ccc([C@H](C)NC(=O)[C@@H]2C[C@@H](O)CN2C(=O)[C@@H](NC(=O)CCCCCC(=O)N2CCN(CC[C@H](CSc3ccccc3)Nc3ccc(S(=O)(=O)NC(=O)c4ccc(N5CCN(CC6=C(c7ccc(Cl)cc7)CCC(C)(C)C6)CC5)cc4)cc3S(=O)(=O)C(F)(F)F)CC2)C(C)(C)C)cc1 [DT2216, reference compound]
